Results from patent US9738634B2, “Heterocyclic amide compound and herbicide” (SYNGENTA PARTICIPATIONS AG, priority 2013, dated 2017).

How the values were obtained:
Assay type in all cases: in vivo
barnyard grass [1] = test: Test Example 1: weedkilling efficacy, preemergent weed treatment in the submerged state; A: barnyard grass; details: treatment dosage 252 g/ha
Summary of the method: (§1)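 Visual scores against set criteria were taken 3 weeks after treatment. Compounds, as diluted emulsions at specified g/ha, went onto the water surface of 4 cm-flooded alluvial soil pots on the day weeds were sown and 2.5-leaf rice was transplanted; greenhouse held 25–30 °C.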

bulrush [2] = test: Test Example 1: weedkilling efficacy, preemergent weed treatment in the submerged state; B: bulrush; details: treatment dosage 252 g/ha
Summary of the method: as §1

oval-leafed pondweed [3] = test: Test Example 1: weedkilling efficacy, preemergent weed treatment in the submerged state; C: oval-leafed pondweed; details: treatment dosage 252 g/ha
Summary of the method: as §1

transplanted rice = test: Test Example 1: preemergent weed treatment in the submerged state, effect on crop; a: transplanted rice; details: treatment dosage 252 g/ha
Summary of the method: as §1

barnyard grass [4] = test: Test Example 2: weedkilling efficacy, growth period weed treatment in the submerged state; A: barnyard grass; details: treatment dosage 252 g/ha
Summary of the method: (§2)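 Barnyard grass, bulrush and oval-leafed pondweed sown in alluvial soil under 4 cm flooding, greenhouse 25 to 30° C. At 1-2 leaf stage, water-diluted emulsion applied to the water surface at stated g/ha dosages; effects scored 3 weeks later.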

bulrush [5] = test: Test Example 2: weedkilling efficacy, growth period weed treatment in the submerged state; B: bulrush; details: treatment dosage 252 g/ha
Summary of the method: as §2

oval-leafed pondweed [6] = test: Test Example 2: weedkilling efficacy, growth period weed treatment in the submerged state; C: oval-leafed pondweed; details: treatment dosage 252 g/ha
Summary of the method: as §2

crabgrass [7] = test: Test Example 3: weedkilling efficacy through soil treatment; D: crabgrass; details: treatment dosage 315 g/ha
Summary of the method: (§3)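 Crop and weed responses were judged three weeks after a uniform surface spray of the water-diluted emulsion at the given g/ha rate. Seeds sat beneath about 1.5 cm of sterilized diluvial soil, and boxes stood in a greenhouse at 25 to 30° C.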

green foxtail [8] = test: Test Example 3: weedkilling efficacy through soil treatment; E: green foxtail; details: treatment dosage 315 g/ha
Summary of the method: as §3

wild oat [9] = test: Test Example 3: weedkilling efficacy through soil treatment; G: wild oat; details: treatment dosage 315 g/ha
Summary of the method: as §3

black-grass [10] = test: Test Example 3: weedkilling efficacy through soil treatment; H: black-grass; details: treatment dosage 315 g/ha
Summary of the method: as §3

Italian ryegrass [11] = test: Test Example 3: weedkilling efficacy through soil treatment; I: Italian ryegrass; details: treatment dosage 315 g/ha
Summary of the method: as §3

Indian mallow [12] = test: Test Example 3: weedkilling efficacy through soil treatment; K: Indian mallow; details: treatment dosage 315 g/ha
Summary of the method: as §3

redroot pigweed [13] = test: Test Example 3: weedkilling efficacy through soil treatment; L: redroot pigweed; details: treatment dosage 315 g/ha
Summary of the method: as §3

fig-leafed goosefoot [14] = test: Test Example 3: weedkilling efficacy through soil treatment; M: fig-leafed goosefoot; details: treatment dosage 315 g/ha
Summary of the method: as §3

chickweed [15] = test: Test Example 3: weedkilling efficacy through soil treatment; N: chickweed; details: treatment dosage 315 g/ha
Summary of the method: as §3

catchweed [16] = test: Test Example 3: weedkilling efficacy through soil treatment; O: catchweed; details: treatment dosage 315 g/ha
Summary of the method: as §3

birds-eye speedwell [17] = test: Test Example 3: weedkilling efficacy through soil treatment; p: birds-eye speedwell; details: treatment dosage 315 g/ha
Summary of the method: as §3

directly sown rice [18] = test: Test Example 3: soil treatment, effect on crop; b: directly sown rice; details: treatment dosage 315 g/ha
Summary of the method: as §3

corn [19] = test: Test Example 3: soil treatment, effect on crop; c: corn; details: treatment dosage 315 g/ha
Summary of the method: as §3

soybean [20] = test: Test Example 3: soil treatment, effect on crop; d: soybean; details: treatment dosage 315 g/ha
Summary of the method: as §3

wheat [21] = test: Test Example 3: soil treatment, effect on crop; e: wheat; details: treatment dosage 315 g/ha
Summary of the method: as §3

beet [22] = test: Test Example 3: soil treatment, effect on crop; f: beet; details: treatment dosage 315 g/ha
Summary of the method: as §3

crabgrass [23] = test: Test Example 4: weedkilling efficacy by foliar treatment; D: crabgrass; details: treatment dosage 315 g/ha
Summary of the method: (§4)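 Seeds are spot-sown into sterilized diluvial soil and covered with about 1.5 cm of soil. After 14 days' greenhouse growth at 25 to 30° C, plants are sprayed on stems and leaves with diluted emulsion at the stated g/ha rate, then scored at 3 weeks.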

green foxtail [24] = test: Test Example 4: weedkilling efficacy by foliar treatment; E: green foxtail; details: treatment dosage 315 g/ha
Summary of the method: as §4

wild oat [25] = test: Test Example 4: weedkilling efficacy by foliar treatment; G: wild oat; details: treatment dosage 315 g/ha
Summary of the method: as §4

black-grass [26] = test: Test Example 4: weedkilling efficacy by foliar treatment; H: black-grass; details: treatment dosage 315 g/ha
Summary of the method: as §4

Italian ryegrass [27] = test: Test Example 4: weedkilling efficacy by foliar treatment; I: Italian ryegrass; details: treatment dosage 315 g/ha
Summary of the method: as §4

Indian mallow [28] = test: Test Example 4: weedkilling efficacy by foliar treatment; K: Indian mallow; details: treatment dosage 315 g/ha
Summary of the method: as §4

redroot pigweed [29] = test: Test Example 4: weedkilling efficacy by foliar treatment; L: redroot pigweed; details: treatment dosage 315 g/ha
Summary of the method: as §4

fig-leafed goosefoot [30] = test: Test Example 4: weedkilling efficacy by foliar treatment; M: fig-leafed goosefoot; details: treatment dosage 315 g/ha
Summary of the method: as §4

chickweed [31] = test: Test Example 4: weedkilling efficacy by foliar treatment; N: chickweed; details: treatment dosage 315 g/ha
Summary of the method: as §4

catchweed [32] = test: Test Example 4: weedkilling efficacy by foliar treatment; O: catchweed; details: treatment dosage 315 g/ha
Summary of the method: as §4

birds-eye speedwell [33] = test: Test Example 4: weedkilling efficacy by foliar treatment; p: birds-eye speedwell; details: treatment dosage 315 g/ha
Summary of the method: as §4

directly sown rice [34] = test: Test Example 4: foliar treatment, effect on crop; b: directly sown rice; details: treatment dosage 315 g/ha
Summary of the method: as §4

corn [35] = test: Test Example 4: foliar treatment, effect on crop; c: corn; details: treatment dosage 315 g/ha
Summary of the method: as §4

soybean [36] = test: Test Example 4: foliar treatment, effect on crop; d: soybean; details: treatment dosage 315 g/ha
Summary of the method: as §4

wheat [37] = test: Test Example 4: foliar treatment, effect on crop; e: wheat; details: treatment dosage 315 g/ha
Summary of the method: as §4

beet [38] = test: Test Example 4: foliar treatment, effect on crop; f: beet; details: treatment dosage 315 g/ha
Summary of the method: as §4

## CC1=C(c2ccccc2)C(=O)N(C(C)(C)C(=O)Nc2cncc(C(F)(F)F)c2)CO1 [B-3-03]
Barnyard grass [1]
  A (barnyard grass) weedkilling efficacy grade: 5 (weed kill ratio 90% or more, (practically complete withering))
Bulrush [2]
  B (bulrush) weedkilling efficacy grade: 5 (weed kill ratio 90% or more, (practically complete withering))
oval-leafed pondweed [3]
  C (oval-leafed pondweed) weedkilling efficacy grade: 5 (weed kill ratio 90% or more, (practically complete withering))
Transplanted rice
  a (transplanted rice) effect on crop grade: 0 (weed kill ratio 5% or less (practically no effect))
Barnyard grass [4]
  A (barnyard grass) weedkilling efficacy grade: 5 (weed kill ratio 90% or more, (practically complete withering))
Bulrush [5]
  B (bulrush) weedkilling efficacy grade: 5 (weed kill ratio 90% or more, (practically complete withering))
oval-leafed pondweed [6]
  C (oval-leafed pondweed) weedkilling efficacy grade: 5 (weed kill ratio 90% or more, (practically complete withering))
Crabgrass [7]
  D (crabgrass) weedkilling efficacy grade: 5 (weed kill ratio 90% or more, (practically complete withering))
Green foxtail [8]
  E (green foxtail) weedkilling efficacy grade: 5 (weed kill ratio 90% or more, (practically complete withering))
Wild oat [9]
  G (wild oat) weedkilling efficacy grade: 4 (weed kill ratio 70% or more, less than 90%)
black-grass [10]
  H (black-grass) weedkilling efficacy grade: 5 (weed kill ratio 90% or more, (practically complete withering))
Italian ryegrass [11]
  I (Italian ryegrass) weedkilling efficacy grade: 5 (weed kill ratio 90% or more, (practically complete withering))
Indian mallow [12]
  K (Indian mallow) weedkilling efficacy grade: 0 (weed kill ratio 5% or less (practically no effect))
Redroot pigweed [13]
  L (redroot pigweed) weedkilling efficacy grade: 0 (weed kill ratio 5% or less (practically no effect))
fig-leafed goosefoot [14]
  M (fig-leafed goosefoot) weedkilling efficacy grade: 1 (weed kill ratio 5% or more, less than 20%)
Chickweed [15]
  N (chickweed) weedkilling efficacy grade: 0 (weed kill ratio 5% or less (practically no effect))
Catchweed [16]
  O (catchweed) weedkilling efficacy grade: 0 (weed kill ratio 5% or less (practically no effect))
birds-eye speedwell [17]
  P (birds-eye speedwell) weedkilling efficacy grade: 3 (weed kill ratio 40% or more, less than 70%)
Directly sown rice [18]
  b (directly sown rice) effect on crop grade: 4 (weed kill ratio 70% or more, less than 90%)
Corn [19]
  c (corn) effect on crop grade: 4 (weed kill ratio 70% or more, less than 90%)
Soybean [20]
  d (soybean) effect on crop grade: 0 (weed kill ratio 5% or less (practically no effect))
Wheat [21]
  e (wheat) effect on crop grade: 0 (weed kill ratio 5% or less (practically no effect))
Beet [22]
  f (beet) effect on crop grade: 2 (weed kill ratio 20% or more, less than 40%)
Crabgrass [23]
  D (crabgrass) weedkilling efficacy grade: 5 (weed kill ratio 90% or more, (practically complete withering))
Green foxtail [24]
  E (green foxtail) weedkilling efficacy grade: 5 (weed kill ratio 90% or more, (practically complete withering))
Wild oat [25]
  G (wild oat) weedkilling efficacy grade: 4 (weed kill ratio 70% or more, less than 90%)
black-grass [26]
  H (black-grass) weedkilling efficacy grade: 5 (weed kill ratio 90% or more, (practically complete withering))
Italian ryegrass [27]
  I (Italian ryegrass) weedkilling efficacy grade: 5 (weed kill ratio 90% or more, (practically complete withering))
Indian mallow [28]
  K (Indian mallow) weedkilling efficacy grade: 2 (weed kill ratio 20% or more, less than 40%)
Redroot pigweed [29]
  L (redroot pigweed) weedkilling efficacy grade: 2 (weed kill ratio 20% or more, less than 40%)
fig-leafed goosefoot [30]
  M (fig-leafed goosefoot) weedkilling efficacy grade: 2 (weed kill ratio 20% or more, less than 40%)
Chickweed [31]
  N (chickweed) weedkilling efficacy grade: 2 (weed kill ratio 20% or more, less than 40%)
Catchweed [32]
  O (catchweed) weedkilling efficacy grade: 0 (weed kill ratio 5% or less (practically no effect))
birds-eye speedwell [33]
  P (birds-eye speedwell) weedkilling efficacy grade: 1 (weed kill ratio 5% or more, less than 20%)
Directly sown rice [34]
  b (directly sown rice) effect on crop grade: 5 (weed kill ratio 90% or more, (practically complete withering))
Corn [35]
  c (corn) effect on crop grade: 4 (weed kill ratio 70% or more, less than 90%)
Soybean [36]
  d (soybean) effect on crop grade: 3 (weed kill ratio 40% or more, less than 70%)
Wheat [37]
  e (wheat) effect on crop grade: 0 (weed kill ratio 5% or less (practically no effect))
Beet [38]
  f (beet) effect on crop grade: 0 (weed kill ratio 5% or less (practically no effect))
